Test results taken from article PMC4999502, “A rheostat mechanism governs the bifurcation of carbon flux in mycobacteria” (Nature Communications, 2016).

How the values were obtained:
[1] = target: T1, M. smegmatis ICD (MsmICD) (Mycolicibacterium smegmatis, UniProt A0QSZ3); experiment: isothermal titration calorimetry; assay type: binding; settings: pH 7.5, 25 °C, 10 mM Tris, 10 mM EDTA, 2.5 mM MgCl2; putative allosteric activator; 1:1 single-site fit
T1 construct: gene MSMEG_1654; full ORF, 743 AA; pET-28a(+), C-terminal TEV site and 6-His tag, tag removed by TEV; E. coli BL21(DE3); text says mycobacterial ICD2 forms dimers in solution
Excerpt: isothermal titration calorimetry on M. smegmatis ICD (MsmICD)

[2] = target: T1, M. smegmatis ICD (MsmICD); experiment: X-ray crystal structure, […] Å; assay type: binding; settings: Mn2+ bound; crystals pre-incubated with glyoxylate, MnCl2, isocitrate and NADP+; pH 7.5

| SMILES | K (M^-1) [1] | X-ray crystal structure, 2.8 Å [2] |
| --- | --- | --- |
| O=CC(=O)O [glyoxylate] | 1.10e^6±4.21e^5 |  |
| O=C(O)C[C@H](C(=O)O)[C@@H](O)C(=O)O (racemic) [isocitrate] |  | We determined the structure of MsmICD bound to isocitrate and manganese |
